Measured values published in article PMC12361428 (Nature Communications, 2025).
Where “and” joins values, the source holds several entries; their conditions need not be identical. Identical values can stand only once.

Key:
A1AR = conditions: source not given; cited from earlier work
[1] = system: Nluc-tagged hA3AR-BRIL-S97R; experiment: NanoBRET washout (irreversible binding) assay vs XAC-630
[2] = system: A3AR H95^3.37 alanine mutation; conditions: cited from earlier work

SMILES | pKi (A1AR) | NanoBRET washout assay, normalised signal (Figure S2G), individual replicates ([1]; 4 x Wash) | NanoBRET washout assay, normalised signal (Figure S2G), individual replicates ([1]; Control (no wash)) | decrease in binding [2] [fold]
CCCn1c(=O)c2[nH]c(C3CCCCC3)nc2n(CCCNC(=O)c2ccc(S(=O)(=O)F)cc2)c1=O [DU172] | 7.4 | – | – | –
O=C(Cc1ccccc1)Nc1nc2ccc(Cl)cc2c2nc(-c3ccco3)nn12 [MRS1220, 9-Chloro-2-(2-furanyl)-5-((phenylacetyl)amino)-[1,2,4]triazolo[1,5-c]quinazoline] | – | 60.7809 and 60.2862 and 64.3691 | 11.5596 and 12.4414 and 6.2814 and 13.7989 | –
CNC(=O)[C@H]1O[C@@H](n2cnc3c(NCc4cccc(I)c4)nc(Cl)nc32)[C@H](O)[C@@H]1O [Namodenoson] | – | – | – | 30
CC[C@@H]1CN2C(=O)N(C)c3nc(-c4ccccc4)[nH]c3C2=N1 [PSB11] | – | 116.307 and 107.384 and 90.4226 and 99.5492 | 1.581 and 3.183e-15 and -2.281 and -2.887e-15 | –
